The text below walks through data of ChEMBL document CHEMBL2074129 (J Clin Invest, 1995).

Data set [1] deals with ATP-dependent translocase ABCB1 (Mus musculus, UniProt P21447). Description: TP_TRANSPORTER: transepithelial transport (basal to apical) in mdr1a-expressing LLC-PK1 cell. Type of data set: functional, cell-based. As to conditions: pig.
The target of data set [2] is ATP-dependent translocase ABCB1 (Homo sapiens, UniProt P08183). Description: TP_TRANSPORTER: transepithelial transport (basal to apical) in MDR1-expressing LLC-PK1 cells. Type of data set: functional, cell-based. The note with it: pig.
Chain of ATP-dependent translocase ABCB1 (Homo sapiens, UniProt P08183) (P08183 whole entry): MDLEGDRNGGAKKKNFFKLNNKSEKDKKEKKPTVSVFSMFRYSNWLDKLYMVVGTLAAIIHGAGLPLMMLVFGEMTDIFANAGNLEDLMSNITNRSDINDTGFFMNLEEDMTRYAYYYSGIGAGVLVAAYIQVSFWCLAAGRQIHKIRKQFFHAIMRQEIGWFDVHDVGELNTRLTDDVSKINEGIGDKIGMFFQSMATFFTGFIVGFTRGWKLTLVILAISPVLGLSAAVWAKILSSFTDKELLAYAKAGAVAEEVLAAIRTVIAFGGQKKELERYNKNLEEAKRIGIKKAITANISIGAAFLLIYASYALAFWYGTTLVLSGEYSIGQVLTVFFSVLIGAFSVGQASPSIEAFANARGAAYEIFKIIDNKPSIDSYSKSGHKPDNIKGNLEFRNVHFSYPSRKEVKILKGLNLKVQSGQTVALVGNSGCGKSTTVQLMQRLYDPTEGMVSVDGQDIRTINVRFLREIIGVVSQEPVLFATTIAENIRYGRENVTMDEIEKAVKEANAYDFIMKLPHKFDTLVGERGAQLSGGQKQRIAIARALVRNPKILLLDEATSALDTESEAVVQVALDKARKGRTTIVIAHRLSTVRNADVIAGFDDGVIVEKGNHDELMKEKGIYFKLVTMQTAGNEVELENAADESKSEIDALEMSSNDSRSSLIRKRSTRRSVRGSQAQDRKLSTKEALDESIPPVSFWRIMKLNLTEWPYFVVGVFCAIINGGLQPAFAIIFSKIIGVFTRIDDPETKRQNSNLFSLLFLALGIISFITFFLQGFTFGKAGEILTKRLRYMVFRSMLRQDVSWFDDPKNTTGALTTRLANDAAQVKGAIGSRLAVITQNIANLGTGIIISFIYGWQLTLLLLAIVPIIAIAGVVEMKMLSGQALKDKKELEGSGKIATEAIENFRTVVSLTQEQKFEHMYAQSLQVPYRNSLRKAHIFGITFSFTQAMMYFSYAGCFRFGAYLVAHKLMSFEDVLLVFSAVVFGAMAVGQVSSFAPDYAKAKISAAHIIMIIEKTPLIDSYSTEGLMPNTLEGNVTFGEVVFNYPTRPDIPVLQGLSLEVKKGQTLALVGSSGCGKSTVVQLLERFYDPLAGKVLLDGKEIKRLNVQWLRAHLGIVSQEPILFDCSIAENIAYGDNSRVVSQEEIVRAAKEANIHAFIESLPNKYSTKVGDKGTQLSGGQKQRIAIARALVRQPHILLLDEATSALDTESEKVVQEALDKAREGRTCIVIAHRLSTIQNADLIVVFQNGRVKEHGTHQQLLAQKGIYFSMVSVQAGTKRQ

Chain of ATP-dependent translocase ABCB1 (Mus musculus, UniProt P21447) (P21447 whole entry): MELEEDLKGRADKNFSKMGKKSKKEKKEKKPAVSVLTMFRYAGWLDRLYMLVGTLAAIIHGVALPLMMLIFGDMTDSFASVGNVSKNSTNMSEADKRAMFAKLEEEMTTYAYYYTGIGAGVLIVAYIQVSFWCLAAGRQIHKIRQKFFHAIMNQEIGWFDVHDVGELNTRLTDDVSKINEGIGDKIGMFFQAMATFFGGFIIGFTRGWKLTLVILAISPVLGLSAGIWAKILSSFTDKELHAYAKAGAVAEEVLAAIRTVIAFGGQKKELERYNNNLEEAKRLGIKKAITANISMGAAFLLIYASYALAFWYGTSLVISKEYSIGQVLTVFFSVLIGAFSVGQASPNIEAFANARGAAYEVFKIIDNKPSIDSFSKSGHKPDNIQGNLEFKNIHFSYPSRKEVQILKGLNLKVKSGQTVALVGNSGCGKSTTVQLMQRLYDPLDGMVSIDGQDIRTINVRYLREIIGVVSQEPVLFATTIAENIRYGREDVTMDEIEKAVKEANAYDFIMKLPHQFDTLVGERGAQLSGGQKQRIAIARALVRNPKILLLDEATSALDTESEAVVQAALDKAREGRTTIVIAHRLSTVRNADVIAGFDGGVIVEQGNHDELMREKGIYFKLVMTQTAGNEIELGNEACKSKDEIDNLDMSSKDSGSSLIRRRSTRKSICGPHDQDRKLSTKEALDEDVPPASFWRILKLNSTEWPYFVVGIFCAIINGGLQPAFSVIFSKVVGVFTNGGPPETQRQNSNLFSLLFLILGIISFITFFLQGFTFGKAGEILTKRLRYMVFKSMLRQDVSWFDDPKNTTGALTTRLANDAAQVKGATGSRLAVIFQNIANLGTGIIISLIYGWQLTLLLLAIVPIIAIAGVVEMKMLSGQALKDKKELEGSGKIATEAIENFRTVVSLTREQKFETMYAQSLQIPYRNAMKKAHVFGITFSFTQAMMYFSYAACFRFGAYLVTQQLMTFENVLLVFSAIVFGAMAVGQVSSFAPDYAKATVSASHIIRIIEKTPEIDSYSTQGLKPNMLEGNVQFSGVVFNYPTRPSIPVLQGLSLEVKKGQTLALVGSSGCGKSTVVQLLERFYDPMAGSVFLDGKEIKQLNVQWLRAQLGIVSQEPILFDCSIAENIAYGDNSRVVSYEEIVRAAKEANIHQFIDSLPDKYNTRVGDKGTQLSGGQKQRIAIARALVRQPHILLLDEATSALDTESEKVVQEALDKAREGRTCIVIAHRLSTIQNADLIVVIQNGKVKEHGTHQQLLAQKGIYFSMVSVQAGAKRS

Regarding `C[C@@H]1C[C@H]2[C@@H]3CCC4=CC(=O)C=C[C@]4(C)[C@@]3(F)[C@@H](O)C[C@]2(C)[C@@]1(O)C(=O)CO` [DEXAMETHASONE], the Activity entry in data set [1] and in data set [2] was “substrate [+]” throughout.

For `CN1CC[C@]23c4c5ccc(O)c4O[C@H]2[C@@H](O)C=C[C@H]3[C@H]1C5` [MORPHINE], in data set [1], the Activity entry was “substrate [+]”.

Take IVERMECTIN: the Activity entry in data set [1] and in data set [2] was “substrate [+]” throughout.
